Source: article PMC11697113, “The Hsc70 system maintains the synaptic SNARE protein SNAP-25 in an assembly-competent state and delays its aggregation [drawing 1]” (The Journal of Biological Chemistry, 2024)

Molecular target: T1, Hsc70 (Homo sapiens, UniProt P11142)
T1 construct: 6X His-tag (TEV-cleavable) (cleaved yes); made in house; host or cells: E. coli Rosetta (DE3)
Test: Competition binding vs FITC-p5 by fluorescence anisotropy
Conditions: Hsc70 5 μM, FITC-p5 50 nM, competitor 0 to 200 μM, phosphate buffer pH 7.4, overnight 4 °C, three independent experiments; for relative affinity for Hsc70: fluorescence anisotropy, comparator LOOPP
Method: Figure 3 Hsc70 forms complexes with SNAP-25.A, native PAGE of SNAP-25 (10 μM) in the presence and absence of Hsc70 (2 μM). The difference in signal intensity of His-SNAP25 probed with antibody is likely due to altered epitope exposure upon formation of the SNAP-25-Hsc70 complex. B, binding of SNAP-25 (black), SNAP-25 SNN (SNNFR, orange), and SNC (SNCFR, green)) fragments to Hsc70 by competition followed by fluorescence anisotropy. Increasing concentrations of the competitors were added to a complex of Hsc70 (5 μM) and FITC-p5 peptide (50 nM). Error bars represent SDs from three independent experiments.
To pin down the regions in SNAP-25 where Hsc70 binds we expressed the individual SNN and SNC fragments of SNAP-25 and tested their ability to compete for Hsc70 binding to an FITC-labeled p5 peptide (ALLLSAPRR).
Figure 5 SNN and SNC peptides interact with the canonical substrate-binding site of Hsc70.A, ATPase activity of Hsc70 (2 μM) in the absence (gray) and presence of 200 μM SNNP (orange) and SNCP (green) peptides. Error bars represent the SDs from three independent experiments. B, binding of SNAP-25 (black), SNNP (orange), LoopP (blue), and SNCP (green) peptides to Hsc70 followed by competition for FITC-p5 peptide using fluorescence anisotropy. Increasing concentrations of the competitors were added to a complex of Hsc70 (5 μM) and FITC-p5 peptide (50 nM). Error bars represent SDs from three independent experiments. C, structure of the canonical substrate-binding site of human HspA1 (PDB 4po2) illustrating the location of Hsc70 residues Ile 403 and Ile 440 in red and green spheres, respectively (N.B., Hsc70 and HspA1 share […] sequence identity). The SBD is shown in gray, bound substrate in cyan sticks, and the side chain of the residue occupying the 0th position in the chaperone (“anchor residue”) in orange ball and sticks. For better visualization of the substrate-binding site, residues 512 to 613, 405 to 408, and 431 were removed in this illustration of the structure. D, the Ile region of the ^1H-^13 C HMQC spectra of Ile-^13CH3-labeled Hsc70 (40 μM) in the absence (black) and in the presence of unlabeled SNNP (orange) and SNCP (green) peptides (200 μM).
To further characterize the binding of the SNAP-25 peptides to Hsc70 we used competition assays as above. Peptides SNNP, LOOPP, and SNCP were titrated against the protein-peptide complex of Hsc70 and FITC-p5 and fluorescence anisotropy was monitored to assess how well the SNAP-25 peptides displaced the model peptide.
Direct binding between the p5 peptide (QSRLLLSAPRRAA) and Hsc70 was carried out as described previously ([52]). […] Fluorescence anisotropy was measured in a BioTek plate reader (BioTek) with excitation at 485 nm and emission at 516 nm.
The measured anisotropy values were converted to fraction bound (fb) using the equation: fb=(r−r0)/(rb−r0) where r is the anisotropy value at any point, r0 is the anisotropy value of FITC-p5 in the absence of Hsc70, and rb is the anisotropy value of FITC-p5 when fully bound to Hsc70. […]
For competition assays, the concentrations of Hsc70 and FITC-P5 were kept constant at 5 μM and 50 nM, respectively, and the competitor substrate was titrated from 0 to 200 μM in phosphate buffer. […] Fluorescent anisotropy was measured as described above. […]

T1 sequence (P11142 whole entry): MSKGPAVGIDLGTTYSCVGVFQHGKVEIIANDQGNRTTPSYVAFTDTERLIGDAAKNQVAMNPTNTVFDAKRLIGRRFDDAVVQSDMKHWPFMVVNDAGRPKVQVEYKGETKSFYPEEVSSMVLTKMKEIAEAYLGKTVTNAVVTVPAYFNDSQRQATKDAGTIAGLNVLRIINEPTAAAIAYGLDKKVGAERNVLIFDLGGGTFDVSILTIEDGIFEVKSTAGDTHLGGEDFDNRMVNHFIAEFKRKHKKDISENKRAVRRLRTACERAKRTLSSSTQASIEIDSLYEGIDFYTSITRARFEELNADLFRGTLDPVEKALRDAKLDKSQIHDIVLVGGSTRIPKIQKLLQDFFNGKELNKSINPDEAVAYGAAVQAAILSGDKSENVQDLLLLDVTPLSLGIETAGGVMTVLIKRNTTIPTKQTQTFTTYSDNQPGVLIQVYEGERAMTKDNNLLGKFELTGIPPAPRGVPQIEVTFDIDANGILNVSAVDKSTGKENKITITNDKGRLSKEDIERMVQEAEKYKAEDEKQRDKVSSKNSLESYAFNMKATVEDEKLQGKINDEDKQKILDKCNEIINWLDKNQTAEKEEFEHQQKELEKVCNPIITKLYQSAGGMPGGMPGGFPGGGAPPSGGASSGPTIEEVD

Row | Substance | competition with p5 peptide for binding to Hsc70 (fluorescence anisotropy 485/516 nm) | relative affinity for Hsc70
1 | synaptosomal-associated 25 kDa protein [SNAP-25] | competed with p5 peptide for binding to Hsc70 | –
2 | EREQMAISGGFIRR [SNCP, peptide … from the LOOP-SNC domain of SNAP-25] | – | significantly higher affinity than LOOPP
3 | RRMLQLVEESK [SNNP, peptide … from the SNN domain of SNAP-25] | – | significantly higher affinity than LOOPP
